In brackets after ≈: the same amount, converted by molar mass. Like-named read-outs stand apart in the source and are kept apart here.
How the values were obtained:
tyrosinase [1] = target: T1, tyrosinase (Agaricus bisporus, UniProt C7FF04); assay: Kinetic analysis of tyrosinase (Lineweaver–Burk); type: biochemical, mushroom; conditions: for inhibition mechanism: Lineweaver–Burk double-reciprocal plots
T1 construct: purchased Sigma-Aldrich
Experimental: L-DOPA solutions at various concentrations (0.5, 1, 2, and 4 mM) were prepared in PBS buffer (pH 7.4) and mixed with carboxylic acids at different concentrations and tyrosinase (final concentration of 60 U/mL). […] The reaction rates were calculated based on the OD values. To analyze the inhibition types of the four carboxylic acids on tyrosinase, double-reciprocal Lineweaver–Burk plots were constructed with 1/v (reaction rate) as the y-axis and 1/[S] (substrate concentration) as the x-axis. The maximum reaction velocity (Vmax) and Michaelis constant (Km) were determined using GraphPad Prism 10 (GraphPad Software, Massachusetts, USA).

mushroom tyrosinase = mushroom tyrosinase (Agaricus bisporus, UniProt C7FF04); assay: Inhibition of mushroom tyrosinase activity (L-DOPA, OD475); type: biochemical; conditions: read-out: tyrosinase inhibition rate
Sequence of mushroom tyrosinase (C7FF04 2-392): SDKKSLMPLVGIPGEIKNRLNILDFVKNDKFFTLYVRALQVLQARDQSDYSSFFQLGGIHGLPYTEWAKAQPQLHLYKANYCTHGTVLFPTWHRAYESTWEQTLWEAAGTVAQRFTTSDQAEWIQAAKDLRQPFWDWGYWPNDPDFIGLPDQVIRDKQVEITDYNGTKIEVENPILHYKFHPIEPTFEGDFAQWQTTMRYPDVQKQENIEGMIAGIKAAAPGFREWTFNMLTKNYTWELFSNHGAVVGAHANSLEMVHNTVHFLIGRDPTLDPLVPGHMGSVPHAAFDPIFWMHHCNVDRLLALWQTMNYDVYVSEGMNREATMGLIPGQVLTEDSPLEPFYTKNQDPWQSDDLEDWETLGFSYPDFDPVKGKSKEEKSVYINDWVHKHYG
Experimental: L-DOPA solution (5 mM) and tyrosinase (400 U/mL) (Sigma-Aldrich, St. Louis, MO, USA) were prepared in PBS buffer (pH 7.4) (Qingdao Hope Bio-Technology Co., Ltd., Qingdao, China). A reaction mixture was prepared by combining 240 μL of carboxylic acid at various concentrations, 360 μL of L-DOPA solution, and 120 μL of tyrosinase. […] Deionized water was used as the control.

[2] = pH of carboxylic acid mixed with PBS buffer, without tyrosinase; type: physicochemical; conditions: in PBS buffer, absence of tyrosinase
[3] = Cell viability of B16-F10 by MTT; type: cell-based; conditions: mouse, B16-F10 cells
Experimental: B16-F10 cells were seeded in 96-well plates at a density of 1 × 10^5 cells/mL and cultured at 37 °C with 5% CO2 for 24 h. Subsequently, various concentrations of carboxylic acids were added, and the cells were further incubated for 24 h. Then, 6 μL of MTT (5 mg/mL) was added, and the cells were cultured for an additional 4 h. Afterward, 200 μL of DMSO was added to dissolve the formazan crystals by gently pipetting up and down. The absorbance at 570 nm (OD570) was measured using a microplate reader (Infinite 200Pro, Tecan), with deionized water serving as the control. The cell viability was calculated with Equation (2): (2) [(OD570 of sample)/OD570 of control]×100%

tyrosinase [4] = target: T1, tyrosinase; assay: Fluorescence spectra analysis of tyrosinase; type: binding, mushroom; conditions: 6 mM; excitation 280 nm
Experimental: Carboxylic acid solutions at various concentrations were mixed with PBS buffer and tyrosinase (final concentration of 60 U/mL) and then transferred to a black 96-well plate. Fluorescence analysis was conducted using a microplate reader (Infinite 200Pro, Tecan).

B16-F10 cells = assay: Melanin content analysis of B16-F10 cells (α-MSH stimulated); type: cell-based; conditions: Mus musculus, B16-F10, α-MSH 1 μM, 48 h, read-out: melanin inhibition rate; for inhibition at 6000 µM: 6 mM
Experimental: A 900 μL cell suspension with an approximate density of 50% confluence was seeded into a 12-well plate and cultured for 24 h at 37 °C with 5% CO2. Subsequently, various concentrations of carboxylic acids were added, and the cells were further incubated for 1 h. Then, 1 μL of 1 mM α-melanocyte-stimulating hormone (α-MSH) solution was added to achieve a final concentration of 1 μM, and the cells were cultured for an additional 48 h at 37 °C with 5% CO2 to stimulate melanogenesis. Afterward, the cells were digested with trypsin, collected by centrifugation at 10,000 rpm for 5 min (Andreas Hettich GmbH & Co., KG, Tuttlingen, Germany), and the supernatant was discarded. Each tube was treated with 200 μL of 1 M NaOH solution and incubated in a water bath at 60 °C for 20 min. Following incubation, the samples were vortexed to ensure homogeneity, and 200 μL of each sample was transferred to a 96-well plate. The absorbance at 405 nm (OD405) was measured using a microplate reader (Infinite 200Pro, Tecan), and the data were recorded to calculate the melanin content, with deionized water serving as the control. The reduction in melanin content was calculated with Equation (3):(3) [(OD405 of control−OD405 of sample)/OD405 of control]×100%

[5] = L-DOPA auto-oxidation analysis; conditions: for L-DOPA auto-oxidation inhibition rate: 1.5 mM; for IC50: 37 °C, 12 h, calculated using SPSS, read-out: IC50 for L-DOPA auto-oxidation inhibition
Experimental: A 5 mM L-DOPA solution was prepared in PBS buffer (pH 7.4). Subsequently, 240 μL of carboxylic acid solution, 360 μL of L-DOPA solution, and 120 μL of PBS buffer were sequentially mixed. The mixture was then incubated at 37 °C for 12 h. […] Deionized water was used as the control. The inhibition of L-DOPA auto-oxidation was calculated using the same method as the melanin content analysis.

[6] = cited from earlier work
[7] = target: tyrosinase from BioVision, Inc. (claimed to be of human origin); parameters: method as in PMID 38909081; conditions: cited from earlier work
rats = conditions: cited from earlier work
guinea pigs = conditions: cited from earlier work
tyrosinase and Tyrp 1/2 = conditions: Western blot; 300 and 500 μg/mL, 48 h intervals during 5 d culture; cited from earlier work

T1 sequence (C7FF04 1-392 limits assumed): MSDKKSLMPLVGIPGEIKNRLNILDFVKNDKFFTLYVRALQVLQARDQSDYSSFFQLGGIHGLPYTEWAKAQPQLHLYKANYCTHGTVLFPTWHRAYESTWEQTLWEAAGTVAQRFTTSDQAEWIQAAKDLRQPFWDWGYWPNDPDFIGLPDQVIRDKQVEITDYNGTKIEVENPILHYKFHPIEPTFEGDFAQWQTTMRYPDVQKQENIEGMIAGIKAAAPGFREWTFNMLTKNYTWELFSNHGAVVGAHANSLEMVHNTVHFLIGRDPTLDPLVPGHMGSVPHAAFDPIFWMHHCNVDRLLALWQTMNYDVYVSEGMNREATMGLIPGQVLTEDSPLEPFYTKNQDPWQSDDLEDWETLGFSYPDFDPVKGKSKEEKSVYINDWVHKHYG

| Structure (SMILES) | inhibition mechanism (tyrosinase [1]) | pH ([2]; 6 mM) | viability at 24 h, 6 mM [3] [%] | decrease of tyrosinase fluorescence intensity (tyrosinase [4]) [%] | inhibition at 6000 µM (B16-F10 cells) [%] | L-DOPA auto-oxidation inhibition rate [5] | IC50 [5] [µM] | IC50 DOPA auto-oxidation inhibition [6] [µg/mL] | other results |
| --- | --- | --- | --- | --- | --- | --- | --- | --- | --- |
| O=C(O)[C@@H]1CCC(O)=N1 [L-pyroglutamic acid] | competitive inhibition | 3.7 | > 90 | 48.6 | 27.8 | exceeding 80% | 660 | – | Ki (tyrosinase [1]): 1950 µM; inhibition at 6000 µM (mushroom tyrosinase; 6 mM): > 80% |
| O=C1O[C@H]([C@@H](O)CO)C(O)=C1O [ascorbic acid] | – | – | – | – | – | – | – | 989.6 (≈ 5.62 mM) | – |
| O=c1cc(CO)occ1O [kojic acid, reference compound] | – | – | – | – | – | – | – | 418.5 (≈ 2.94 mM) | IC50 [7]: 9.27 µM |
| CC(O)C(=O)O (centres unmarked) [lactic acid] | mixed-type inhibition | around 6 | > 90 | 45.0 | 14.1 | exceeding 80% | 570 | – | oral LD50 (rats): 3730 mg/kg; Ki (tyrosinase [1]; GraphPad Prism, mixed-model or competitive model, read-out: inhibition constant (Ki)): 2710 µM; inhibition constant (KIS) for enzyme–substrate complex (tyrosinase [1]; mixed-type inhibitors): 17.032 mM; inhibition at 6000 µM (mushroom tyrosinase): 47%; inhibition at 12000 µM (mushroom tyrosinase): 89%; pH ([2]; 12 mM): 3.6; viability at 24 h, 12 mM ([3]; 12 mM): 97%; oral LD50 (guinea pigs): 1810 mg/kg; inhibition at 12000 µM (B16-F10 cells; 12 mM): 29.4%; regulatory effect on melanogenesis-related proteins (tyrosinase and Tyrp 1/2) (tyrosinase and Tyrp 1/2): no significant regulatory effects |
